Measured values as given in article PMC4492750, “The discovery of a selective and potent A2a agonist with extended lung retention” (Pharmacology Research & Perspectives, 2015).
Converted amounts (≈) assume the structure as drawn. Like-named read-outs stand apart in the source and are kept apart here.

Experiments:
[1] = system: LPS-induced TNFα production in rat splenocytes; assay: LPS-induced TNFα production in rat mononuclear spleen cells (rTNFα splenocytes); type: cell-based; settings: Splenocyte, LPS-stimulated TNFα release, rat splenocytes, average (SD); for Emax: read-out: rTNFα splenocytes Intrinsic activity
Method: (§1) • Human A2a and A2b receptor pharmacology: Chinese hamster ovary CHO-K1 cells stably expressing human A2a and A2b receptors were used to determine substances agonistic potency and intrinsic activity. […] The signal corresponding to adenosine at 100 μmol/L was used to define 100% intrinsic activity. • Human A3 receptor pharmacology: A3 receptor Gi coupling was measured by GTPγ ^35[S] filter assay at serial dilutions of compound using membranes from Perkin-Elmer. The signal corresponding to the maximal response of NECA at 100 μmol/L was set to 100% intrinsic activity. • Lipopolysaccharide (LPS)-induced TNFα production in primary human peripheral blood mononuclear cells (hTNFα PBMC) and rat mononuclears (rTNFα splenocytes): Human PBMC and rat mononuclear spleen cells were incubated with serial dilutions of compound and stimulated with LPS.
Procedures and assays were run in R10 buffer (RPMI 1640 Medium supplemented with GlutaMAX™ and HEPES (GIBCO-BRL), 10% fetal calf serum, penicillin and streptomycin (each 5000IU/ml)). Human PBMC were purified from heparinised blood by Ficoll separation (Ficoll, Amersham Pharmacia Biotech AB, Cat: 17-1440-03, Lot: 312170) and rat mononuclear cells were collected after rat spleen perfusion. Both cell preparations were followed by hypotonic lysis of residual erythrocytes. Serial dilutions of compounds were pre-incubated with 200 000 cells/well (96-well plate) for 45min in 37 °C (190µl). Cells were stimulated by 10µl LPS (final concentration 0.5ng/ml human and 150ng/ml rat; SIGMA Cat: L-4516, Lot: 104K4036) for 18h at 37 °C. TNFα release was measured by ELISA (^TmR&D Systems plates) according to the manufacturer’s instructions in cell free supernatant.

[2] = In vivo pharmacokinetics in rats (i.v., oral, intratracheal); settings: for Rat blood clearance: i.v.; for half-life: lung, inhaled or intranasal, intratracheal dosing, n = 2/time point, read-out: Lung t½ (terminal half-life in lung) (converted); for Kp at 24 h: other: intratracheal (i.t.), i.t., ratio of lung concentration 24 h after dose to blood Cmax after same dose, read-out: Lung/blood split
Method: Rat PK was determined after an i.v. dose of 0.1μmol/kg (approximately 50μg/kg, 1ml/kg, TEG:H2O 50:50) given via a catheter in vena jugularis. The PK after oral administration was performed at a dose of 6μmol/kg (approximately 3mg/kg, 4ml/kg, 0.5% HPMC) given by gavage. Intratracheal PK was determined at 0.03 to 0.6μmol/kg (17 to 300μg/kg, 1ml/kg, in a vehicle containing sodium chloride (8.5mg/ml), EDTA (0.1mg/ml), citric acid (0.15mg/ml), sodium citrate (0.5mg/ml) and polysorbate 80 (0.2mg/mL) in purified water). The i.t. dose was given to anaesthetized (isofluran) rats, positioned at approximately 30° angle (head up) and the compound was administered in the trachea using a modified metal cannula. Rats were put back in their cages while regaining consciousness. Serial blood sampling of 100 to 200µl was performed after i.v. and p.o. dosing at pre-defined timepoints. Blood was mixed 1:4 with purified water containing heparin (10 to 30U/ml) in order to haemolyse the blood cells, and then placed in a 96-well plate and stored at –70°C until analysed. The dilution factor was accounted for in the data analysis. After i.t. dosing, animals were euthanized with isoflurane or pentobarbital at defined timepoints after dosing, blood samples taken from the vena jugularis or arteria carotis, handled and stored as described above. The rats were bled to drain as much blood as possible from the lungs. The lungs including the trachea were carefully dissected out with all non-relevant tissue removed, placed in pre-weighed vials and weighed. The lung vials were stored at –70°C until analyzed.
Lung tissue was frozen in liquid nitrogen and homogenised using a CryoPrep pneumatic hammer. The homogenisation of the tissue and the extraction of the compound were done in 4ml Ringer solution with an Adaptive Focused Acoustic Instrument. 50µl of the supernatant was transferred to a 96-well plate. All lung, blood and plasma samples were analysed by LC-MS/MS using a selective and sensitive method. Peak areas were used in comparison to those produced by the standard curve to determine parent compound concentrations. Homogenate concentrations were adjusted to account for the sample dilutions to give tissue concentrations.

[3] = Lipophilicity (LogD), shake flask; type: physicochemical; settings: octanol-water, phosphate buffer pH 7.4; for logD at 10 min: 1-octanol / phosphate buffer
Method: as §1
The octanol-water partition coefficient (LogD) was measured using the shake flask method. 600µL of 1-octanol was added to a vial with 6µL of 10mM DMSO-solution of the test compound. 600µL of 10mM sodium phosphate buffer adjusted to pH 7.4 was added and equilibrium was performed by vigorous shaking for ten minutes with an Eppendorf mixer. The phases were separated by centrifugation. The samples were analysed by HPLC with UV-detection at 254nm.

[4] = Plasma protein binding by equilibrium dialysis; type: in vitro ADME; settings: male, Wistar, pH 7.4, rat plasma, 10 μmol/L, read-out: fu rat (free unbound drug in plasma)
Method: as §1
The plasma protein binding was determined in plasma from male Wistar rats at a compound concentration of 10μM by equilibrium dialysis against a phosphate buffer at pH 7.4 using a semi-permeable membrane with a molecular cut-off of 6-8KDa (Spectra/Por, Spectrum Laboratories Inc, US). The compounds were dialyzed for 18h at 37±1°C in an air incubator on an orbital shaker. The samples were analysed using LC-MS/MS.

[5] = system: allergen-challenged Brown Norway rats; set-up: method as in Fozard et al. [2002]; settings: intratracheal; ref Fozard et al. [2002]; cited from earlier work
[6] = system: LPS-induced BAL neutrophils; assay: LPS-induced lung inflammation model, neutrophils in BAL fluid; type: in vivo, rat; settings: data not shown
Method: The efficacy of the compound on neutrophils in BAL fluid is expressed as per cent inhibition of the full window (negative veh/veh controls vs. the positive veh/LPS controls): Inhibition (%) of LPS-induced BAL neutrophils by compound 2 was calculated using the following formula: [drawing 1] where A is the average in the group administered with vehicle and challenged with LPS; B is the average in the group administered with vehicle and challenged with saline; and C is the average in the group administered with test compound and challenged with LPS.
Animals in all efficacy studies were dosed intratracheally as described above in a buffered saline vehicle (pH 5) containing sodium chloride (8.5mg/ml), citric acid (0.28mg/ml) and sodium citrate (0.5mg/ml). The compound was dissolved in saline when given intravenously (0.9% NaCl) to the swivelled rats.
[…] Each rat was given LPS from the Pseudomona Aeruginosa bacteria (1µg/rat, 5µg/ml saline, Sigma-Aldrich, Sweden).
24 hours after the LPS challenge, rats were anaesthetized and exsanguinated via a cardiac incision. A tube was inserted and ligated to the trachea. The tube was connected to a syringe with 4ml PBS (without Ca^2+/Mg^2+) and a lavage of the whole lung was performed manually. The BAL fluid was collected individually in polyethylene tubes and kept on ice until further processed.
The BAL fluid was centrifuged and the supernatant separated from the cell pellet that was resuspended in 1.0ml of PBS. The total number of cells and cell differentia was counted in an automated cell counter and haematology analyzer (SYSMEX XT-1800iV, software for the rat BALF).

[7] = Substance solubility in phosphate buffer; type: physicochemical; settings: aqueous buffer, thermodynamic from solid; phosphate buffer pH 7.4, dry compound in solid state
Method: as §1
Solubility was measured in phosphate buffer at pH 7.4 using dry compounds in solid state.

A2a = A2a (Homo sapiens, UniProt P29274); assay: Human A2a receptor pharmacology: cAMP Alphascreen in CHO-K1 cells; type: cell-based; set-up: expressed in transfected cells; host or cells: CHO-K1; settings: average (SD); for Emax: CHO-K1, 100% = 10 μmol/L NECA, read-out: A2a human CHO-K1 cells Intrinsic activity; for EC50: cAMP generation
Sequence of A2a (P29274 whole entry): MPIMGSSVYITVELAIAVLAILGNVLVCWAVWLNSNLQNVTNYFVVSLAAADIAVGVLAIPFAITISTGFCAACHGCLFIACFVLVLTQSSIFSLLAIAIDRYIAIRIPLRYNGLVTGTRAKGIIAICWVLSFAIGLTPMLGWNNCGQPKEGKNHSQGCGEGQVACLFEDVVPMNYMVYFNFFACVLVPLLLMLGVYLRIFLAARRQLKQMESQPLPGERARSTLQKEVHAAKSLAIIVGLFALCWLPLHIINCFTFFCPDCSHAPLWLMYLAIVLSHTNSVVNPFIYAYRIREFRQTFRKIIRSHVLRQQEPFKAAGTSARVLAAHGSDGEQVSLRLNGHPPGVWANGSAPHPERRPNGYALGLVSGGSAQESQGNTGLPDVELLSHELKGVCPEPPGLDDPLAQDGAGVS
Method: as §1
Chinese hamster ovary CHO-K1 cells stably expressing human A2a and A2b receptors were stored as 1ml aliquots at -150 °C in freezing medium, thawed immediately prior to assay. […] Cells (10000 cells/well) were incubated with test compounds prepared as serial dilutions. Potency (EC50) and efficacy (% of maximal response) were calculated from data fitted to a 4-parameter logistic function. The signal of 10µM NECA represented the maximal cAMP response (i.e. 100% of efficacy) produced by these cells.

heart = system: heart; set-up: method as in Macallum et al. [1991]; settings: oral, dog study; ref Macallum et al. [1991]; cited from earlier work
[8] = set-up: method as in Mantell et al. [2009], [2010]; settings: over the dose range tested; ref Mantell et al. [2009], [2010]; cited from earlier work
[9] = set-up: method as in Mantell et al. [2010]; settings: ref Mantell et al. [2010]; cited from earlier work
patients with COPD = system: patients with COPD; set-up: method as in Mantell et al. [2009], [2010]; settings: ref Mantell et al. [2009], [2010]; cited from earlier work

SMILES	IC50 [1]	Emax [1]	Rat blood clearance ([2]; mean of n = 3)	half-life ([2]; rat)	Kp at 24 h ([2]; rat)	logD at 10 min [3]	fraction unbound at 18 h, 10 μM [4]	solubility [7]	Emax (A2a)	EC50 (A2a)	further results
CCNC(=O)[C@H]1O[C@@H](n2cnc3c(N)nc(NCCc4ccc(CCC(=O)O)cc4)nc32)[C@H](O)[C@@H]1O [CGS21680, 3-[4-[2-[[6-amino-9-[(2R,3R,4S,5S)-5-(ethylcarbamoyl)-3,4-dihydroxy-tetrahydrofuran-2-yl]purin-2-yl]amino]ethyl]phenyl]propanoic acid, reference compound]	6.9 nM	63.5%	26 mL/min per kg	1 h	< 0.08	< -1	0.17				Percentage of dose remaining in lung at 4 h ([2]; rat, single i.t. dose 300 μg/kg, 4 h): less than 1%; Effect on lung inflammation [5]: inhibited lung inflammation; Pretreatment time at which maximal efficacy was seen [6]: 30 min
CCNC(=O)[C@H]1O[C@@H](n2cnc3c(NC(CC)CC)nc(NCCNC(=O)Nc4ccncc4)nc32)[C@H](O)[C@@H]1O [Compound 1, (2S,3S,4R,5R)-N-ethyl-5-[6-(1-ethylpropylamino)-2-[2-(4-pyridylcarbamoylamino)ethylamino]purin-9-yl]-3,4-dihydroxy-tetrahydrofuran-2-carboxamide]	3.2 nM	53.4%	65 mL/min per kg	6 h	1.8	2	0.2	> 1000 µM	102%	2.4 nM	bioavailability ([2]; whole blood, 6 umol/kg, rat, oral, mean of n = 3, read-out: Rat oral F (bioavailability)): 1.4%
CCNC(=O)[C@H]1O[C@@H](n2cnc3c(NCC(c4ccccc4)c4ccccc4)nc(NCCNC(=O)Nc4cc[n+](C)cc4)nc32)[C@H](O)[C@@H]1O [Compound 3, (2S,3S,4R,5R)-5-[6-(2,2-diphenylethylamino)-2-[2-[(1-methylpyridin-1-ium-4-yl)carbamoylamino]ethylamino]purin-9-yl]-N-ethyl-3,4-dihydroxy-tetrahydrofuran-2-carboxamide]	0.2 nM	58%	42 mL/min per kg	80 h	1800	-0.35	0.11	420 µM	96.2%	0.4 nM	Percentage of dose remaining in lung at 24 h ([2]; rat, single i.t. dose (17 and 20 μmol/kg for compounds 2 and 3 as printed in Fig. 5), 24 h): 52%
OC[C@H]1O[C@@H](n2cnc3c(NCC(c4ccccc4)c4ccccc4)ncnc32)[C@H](O)[C@@H]1O [DPEA, N-(2,2-diphenylethyl) adenosine]											Myocardial findings (heart): myocardial degeneration and necrosis
CCNC(=O)[C@H]1O[C@@H](n2cnc3c(NCC(c4ccccc4)c4ccccc4)nc(C(=O)NCCNC(=O)NC4CCN(c5ccccn5)CC4)nc32)[C@H](O)[C@@H]1O [UK-432,097, 6-(2,2-diphenylethylamino)-9-[(2R,3R,4S,5S)-5-(ethylcarba-moyl)-3,4-dihydroxy-tetrahydrofuran-2-yl]-N-[2-[[1-(2-pyridyl)-4-piperidyl]carbamoylamino]ethyl]purine-2-carboxamide, reference compound]	2.6 nM	60.9%	37 mL/min per kg	4 h	2.7		0.014	12 µM (≈ 9.33 µg/mL)			Safety in Phase I clinical study [8]: no safety limitation; Percentage of dose remaining in lung at 6 h ([2]; rat, i.t. dose 130 μg/kg, 6 h): approximately 3%; Clearance [9]: rapid; Oral bioavailability [9]: low; Plasma protein binding [9]: high; solubility [9]: low; Efficacy in Phase II study (patients with COPD): failed to show efficacy; LogD [3]: 3.4
